# Assay results as given in ChEMBL document CHEMBL5052856, “Inhibitors of apol1 and methods of using same” (2021).
# Target: Apolipoprotein L1 (Homo sapiens, UniProt O14791)
# Experiment: Inhibition of APOL1 G1 variant in human HEK293-T-REx cells measured by Thallium assay
# Type: cell-based
row,SMILES,IC50
1,C[C@H](CO)NC(=O)CNC(=O)[C@H]1C[C@H](c2c(-c3ccc(F)cc3)[nH]c3c(F)cc(F)cc32)C1,> 1000 nM
2,O=C(NCC(O)CO)[C@H]1C[C@@H](c2c(-c3ccc(F)cc3)[nH]c3c(F)cc(F)cc32)C1 (stereo partly specified),> 1000 nM
3,O=C1NCCC1NC(=O)[C@H]1C[C@@H](c2c(-c3ccc(F)cc3)[nH]c3c(F)cc(F)cc32)C1 (stereo partly specified),> 1000 nM
4,O=C(CNC(=O)[C@H]1C[C@H](c2c(-c3ccc(F)cc3)[nH]c3c(F)cc(F)cc32)C1)NCCO,> 1000 nM
5,O=C(NC(CO)CO)[C@H]1C[C@@H](c2c(-c3ccc(F)cc3)[nH]c3c(F)cc(F)cc32)C1,> 1000 nM
6,O=C(N[C@@H]1CCOC1)[C@H]1C[C@@H](c2c(-c3ccc(F)cc3)[nH]c3c(F)cc(F)cc32)C1,> 1000 nM
7,C[C@H](CO)NC(=O)[C@H]1C[C@@H](c2c(-c3ccc(F)cc3)[nH]c3c(F)cc(F)cc32)C1,> 1000 nM
8,CC(CO)NC(=O)[C@H]1C[C@@H](c2c(-c3ccc(F)cc3)[nH]c3c(F)cc(F)cc32)C1 (stereo partly specified),> 1000 nM
9,C[C@@H](O)CNC(=O)C1CC(Cc2c(-c3ccc(F)cc3)[nH]c3c(F)cc(F)cc23)C1 (stereo partly specified),> 1000 nM
10,N#CC(CO)NC(=O)C1CC(Cc2c(-c3ccc(F)cc3)[nH]c3c(F)cc(F)cc23)C1 (stereo unspecified),> 1000 nM
11,C[C@H](O)[C@H](CO)NC(=O)[C@H]1C[C@@H](c2c(-c3ccc(F)cc3)[nH]c3c(F)cc(F)cc32)C1,> 1000 nM
12,C[C@@H](O)CNC(=O)N[C@H]1C[C@H](c2c(-c3ccc(F)cc3)[nH]c3c(F)cc(F)cc32)C1,> 1000 nM
13,CC1(NC(=O)C2CC(Cc3c(-c4ccc(F)cc4)[nH]c4c(F)cc(F)cc34)C2)CCNC1=O (stereo unspecified),> 1000 nM
14,O=C(NCC1CC(F)(F)C1)[C@H]1C[C@@H](c2c(-c3ccc(F)cc3)[nH]c3c(F)cc(F)cc32)C1,> 1000 nM
15,O=C(NC(CO)CO)N[C@H]1C[C@H](c2c(-c3ccc(F)cc3)[nH]c3c(F)cc(F)cc32)C1,> 1000 nM
16,O=C1CN(C(=O)[C@H]2C[C@@H](c3c(-c4ccc(F)cc4)[nH]c4c(F)cc(F)cc43)C2)CCN1,> 1000 nM
17,O=C(NC1(CO)CC1)[C@H]1C[C@@H](c2c(-c3ccc(F)cc3)[nH]c3c(F)cc(F)cc32)C1,> 1000 nM
18,C[C@H](O)CNC(=O)C1CC(Cc2c(-c3ccc(F)cc3)[nH]c3c(F)cc(F)cc23)C1 (stereo partly specified),> 1000 nM
19,CC(O)[C@H](CO)NC(=O)[C@H]1C[C@@H](c2c(-c3ccc(F)cc3)[nH]c3c(F)cc(F)cc32)C1 (stereo partly specified),> 1000 nM
20,O=C1NCCCC1NC(=O)[C@H]1C[C@@H](c2c(-c3ccc(F)cc3)[nH]c3c(F)cc(F)cc32)C1 (stereo partly specified),> 1000 nM
21,O=C(N[C@@H](CO)C(F)(F)F)C1CC(Cc2c(-c3ccc(F)cc3)[nH]c3c(F)cc(F)cc23)C1 (stereo partly specified),> 1000 nM
22,O=C1NC[C@@H](O)[C@@H]1NC(=O)[C@H]1C[C@@H](c2c(-c3ccc(F)cc3)[nH]c3c(F)cc(F)cc32)C1,> 1000 nM
23,Cn1nccc1CNC(=O)[C@H]1C[C@@H](c2c(-c3ccc(F)cc3)[nH]c3c(F)cc(F)cc32)C1,> 1000 nM
24,O=C1NCC[C@H]1NC(=O)[C@H]1C[C@@H](c2c(-c3ccc(F)cc3)[nH]c3c(F)cc(F)cc32)C1,> 1000 nM
25,CC[C@@H](CO)NC(=O)[C@H]1C[C@@H](c2c(-c3ccc(F)cc3)[nH]c3c(F)cc(F)cc32)C1,> 1000 nM

row,SMILES,IC50
1,O=C(N[C@H]1CCOC1)[C@H]1C[C@@H](c2c(-c3ccc(F)cc3)[nH]c3c(F)cc(F)cc32)C1,> 1000 nM
2,O=C(CNC(=O)[C@H]1C[C@H](c2c(-c3ccc(F)cc3)[nH]c3c(F)cc(F)cc32)C1)NC[C@@H](O)C(F)(F)F,> 1000 nM
3,CC(C)NC(=O)CN[C@H]1C[C@H](c2c(-c3ccc(F)cc3)[nH]c3c(F)cc(F)cc32)C1,> 1000 nM
4,O=C([C@H]1C[C@@H](c2c(-c3ccc(F)cc3)[nH]c3c(F)cc(F)cc32)C1)N1C[C@@H](O)[C@H](O)C1,> 1000 nM
5,O=C(NC1CC(O)C1)[C@H]1C[C@@H](c2c(-c3ccc(F)cc3)[nH]c3c(F)cc(F)cc32)C1 (stereo partly specified),> 1000 nM
6,O=C(NC1CCNC1=O)N[C@H]1C[C@H](c2c(-c3ccc(F)cc3)[nH]c3c(F)cc(F)cc32)C1 (stereo partly specified),> 1000 nM
7,Cn1nccc1NC(=O)[C@H]1C[C@@H](c2c(-c3ccc(F)cc3)[nH]c3c(F)cc(F)cc32)C1,> 1000 nM
8,O=C(NC1(CCO)CC1)C1CC(Cc2c(-c3ccc(F)cc3)[nH]c3c(F)cc(F)cc23)C1 (stereo unspecified),> 1000 nM
9,O=C1CCC(NC(=O)[C@H]2C[C@@H](c3c(-c4ccc(F)cc4)[nH]c4c(F)cc(F)cc43)C2)C(=O)N1 (stereo partly specified),> 1000 nM
10,NC(=O)CNC1CC(c2c(-c3ccc(F)cc3)[nH]c3c(F)cc(F)cc23)C1 (stereo unspecified),> 1000 nM
11,CC(C)C(CO)NC(=O)[C@H]1C[C@@H](c2c(-c3ccc(F)cc3)[nH]c3c(F)cc(F)cc32)C1 (stereo partly specified),> 1000 nM
12,O=C(Nc1c[nH][nH]c1=O)C1CC(Cc2c(-c3ccc(F)cc3)[nH]c3c(F)cc(F)cc23)C1 (stereo unspecified),> 1000 nM
13,NC(=O)CN[C@H]1C[C@H](c2c(-c3ccc(F)cc3)[nH]c3c(F)cc(F)cc32)C1,> 1000 nM
14,COCCNC(=O)[C@H]1C[C@@H](c2c(-c3ccc(F)cc3)[nH]c3c(F)cc(F)cc32)C1,> 1000 nM
15,O=C(CN[C@H]1C[C@H](c2c(-c3ccc(F)cc3)[nH]c3c(F)cc(F)cc32)C1)NC1CC1,> 1000 nM
16,Cn1cnc(CNC(=O)[C@H]2C[C@@H](c3c(-c4ccc(F)cc4)[nH]c4c(F)cc(F)cc43)C2)c1,> 1000 nM
17,O=C(NCCn1cccc1)[C@H]1C[C@@H](c2c(-c3ccc(F)cc3)[nH]c3c(F)cc(F)cc32)C1,> 1000 nM
18,CC(C)CC(NC(=O)[C@H]1C[C@@H](c2c(-c3ccc(F)cc3)[nH]c3c(F)cc(F)cc32)C1)C(N)=O (stereo partly specified),> 1000 nM
19,NC(=O)CNC(=O)[C@H]1C[C@@H](c2c(-c3ccc(F)cc3)[nH]c3c(F)cc(F)cc32)C1,> 1000 nM
20,O=C(NCC(O)C(F)F)C1CC(Cc2c(-c3ccc(F)cc3)[nH]c3c(F)cc(F)cc23)C1 (stereo unspecified),> 1000 nM
21,O=C(NCC1COC1)[C@H]1C[C@@H](c2c(-c3ccc(F)cc3)[nH]c3c(F)cc(F)cc32)C1,> 1000 nM
22,CON(C)C(=O)CN[C@H]1C[C@H](c2c(-c3ccc(F)cc3)[nH]c3c(F)cc(F)cc32)C1,> 1000 nM
23,O=C(CNC(=O)[C@H]1C[C@H](c2c(-c3ccc(F)cc3)[nH]c3c(F)cc(F)cc32)C1)NC[C@H](O)C(F)(F)F,> 1000 nM
24,CC(C)C[C@H](CO)NC(=O)C1CC(Cc2c(-c3ccc(F)cc3)[nH]c3c(F)cc(F)cc23)C1 (stereo partly specified),> 1000 nM

# Next, values leading:
row,IC50,SMILES
1,> 1000 nM,NC(=O)CCNC1CC(c2c(-c3ccc(F)cc3)[nH]c3c(F)cc(F)cc23)C1 (stereo unspecified)
2,> 1000 nM,O=C(NC1(CO)CC(F)(F)C1)C1CC(Cc2c(-c3ccc(F)cc3)[nH]c3c(F)cc(F)cc23)C1 (stereo unspecified)
3,> 1000 nM,O=C(N[C@H]1CCOC1=O)C1CC(Cc2c(-c3ccc(F)cc3)[nH]c3c(F)cc(F)cc23)C1 (stereo partly specified)
4,> 1000 nM,O=C(NCCn1cncn1)[C@H]1C[C@@H](c2c(-c3ccc(F)cc3)[nH]c3c(F)cc(F)cc32)C1
5,> 1000 nM,Cc1noc(CNC(=O)C2CC(Cc3c(-c4ccc(F)cc4)[nH]c4c(F)cc(F)cc34)C2)n1 (stereo unspecified)
6,> 1000 nM,C[C@@H](O)CNC(=O)[C@H]1C[C@@H](c2c(-c3ccc(F)cc3)[nH]c3c(F)cc(F)cc32)C1
7,> 1000 nM,NC(=O)C(CO)NC(=O)[C@H]1C[C@@H](c2c(-c3ccc(F)cc3)[nH]c3c(F)cc(F)cc32)C1 (stereo partly specified)
8,0.25 nM,C[C@@H](CO)NC(=O)N[C@H]1C[C@H](c2c(-c3ccc(F)cc3)[nH]c3c(F)cc(F)cc32)C1
9,> 1000 nM,O=C(N[C@H]1C[C@H](O)C1)[C@H]1C[C@@H](c2c(-c3ccc(F)cc3)[nH]c3c(F)cc(F)cc32)C1
10,0.25 nM,Cn1cnc(CNC(=O)C2(C)CC(c3c(-c4ccc(F)cc4)[nH]c4c(F)cc(F)cc34)C2)c1 (stereo unspecified)
11,0.25 nM,Cc1ccn(CCNC(=O)[C@H]2C[C@@H](c3c(-c4ccc(F)cc4)[nH]c4c(F)cc(F)cc43)C2)n1
12,< 250 nM,O=C1NC[C@@H](O)[C@@H]1NC(=O)[C@H]1C[C@H](c2c(-c3ccc(F)cc3)[nH]c3c(F)cc(F)cc32)C1
13,< 250 nM,NC(=O)CNC(=O)C1CC(c2c(-c3ccc(F)cc3)[nH]c3c(F)cc(C(F)(F)F)cc23)C1 (stereo unspecified)
14,< 250 nM,CC1(C(=O)NC2(CO)CC2)CC(c2c(-c3ccc(F)cc3)[nH]c3c(F)cc(F)cc23)C1 (stereo unspecified)
15,0.25 nM,O=C(NCC(F)(F)F)[C@H]1C[C@@H](c2c(-c3ccc(F)cc3)[nH]c3c(F)cc(F)cc32)C1
16,0.25 nM,O=C(NCCO)C1CC(Cc2c(-c3ccc(F)cc3)[nH]c3c(F)cc(F)cc23)C1 (stereo unspecified)

row,IC50,SMILES
1,0.25 nM,O=C(NCCO)[C@H]1C[C@@H](c2c(-c3ccc(F)cc3)[nH]c3c(F)cc(F)cc32)C1
2,< 250 nM,O=C(NC1(CO)CC1)C1(F)CC(c2c(-c3ccc(F)cc3)[nH]c3c(F)cc(F)cc23)C1 (stereo unspecified)
3,0.25 nM,CC1(C(=O)NCCO)CC(c2c(-c3ccc(F)cc3)[nH]c3c(F)cc(F)cc23)C1 (stereo unspecified)
4,0.25 nM,C[C@@H](CO)NC(=O)[C@H]1C[C@@H](c2c(-c3ccc(F)cc3)[nH]c3c(F)cc(F)cc32)C1
5,< 250 nM,O=C(NC(CO)(CO)CO)[C@H]1C[C@H](c2c(-c3ccc(F)cc3)[nH]c3c(F)cc(F)cc32)C1
6,0.25 nM,CNC(=O)CN[C@H]1C[C@H](c2c(-c3ccc(F)cc3)[nH]c3c(F)cc(F)cc32)C1
7,0.25 nM,O=C(NC(CO)(CO)CO)[C@H]1C[C@@H](c2c(-c3ccc(F)cc3)[nH]c3c(F)cc(F)cc32)C1
8,0.25 nM,O=C(NC1(CO)CCC1)[C@H]1C[C@@H](c2c(-c3ccc(F)cc3)[nH]c3c(F)cc(F)cc32)C1
9,< 250 nM,O=C(N[C@@H](CO)C(F)F)[C@H]1C[C@H](c2c(-c3ccc(F)cc3)[nH]c3c(F)cc(F)cc32)C1
10,0.25 nM,O=C(NCCO)C1CC(c2c(-c3ccc(F)cc3)[nH]c3c(F)cc(C(F)(F)F)cc23)C1 (stereo unspecified)
11,< 250 nM,Cn1cnc(CNC(=O)C2(F)CC(c3c(-c4ccc(F)cc4)[nH]c4c(F)cc(F)cc34)C2)c1 (stereo unspecified)
12,0.25 nM,CC(CO)(CO)NC(=O)[C@H]1C[C@@H](c2c(-c3ccc(F)cc3)[nH]c3c(F)cc(F)cc32)C1
13,0.25 nM,O=C(NCC(F)F)[C@H]1C[C@@H](c2c(-c3ccc(F)cc3)[nH]c3c(F)cc(F)cc32)C1
14,0.25 nM,CC(C)(CO)NC(=O)[C@H]1C[C@@H](c2c(-c3ccc(F)cc3)[nH]c3c(F)cc(F)cc32)C1
15,0.25 nM,O=C(N[C@@H](CO)C(F)F)[C@H]1C[C@@H](c2c(-c3ccc(F)cc3)[nH]c3c(F)cc(F)cc32)C1
16,0.25 nM,CC1(C(=O)N[C@H]2CCNC2=O)CC(c2c(-c3ccc(F)cc3)[nH]c3c(F)cc(F)cc23)C1 (stereo partly specified)
